In general, IC50 refers to the concentration at which inhibition is half-maximal.

From US20210009542A1 (Calico Life Sciences LLC, priority 2018, published 2021) come the findings set out here.

Assay [1] has as its target T1, His tagged PTPN2 (TC45) protein (Homo sapiens, UniProt P17706).
T1 construct: made in house
T1 sequence (P17706 with tags, fused parts or gaps isoform P17706-2): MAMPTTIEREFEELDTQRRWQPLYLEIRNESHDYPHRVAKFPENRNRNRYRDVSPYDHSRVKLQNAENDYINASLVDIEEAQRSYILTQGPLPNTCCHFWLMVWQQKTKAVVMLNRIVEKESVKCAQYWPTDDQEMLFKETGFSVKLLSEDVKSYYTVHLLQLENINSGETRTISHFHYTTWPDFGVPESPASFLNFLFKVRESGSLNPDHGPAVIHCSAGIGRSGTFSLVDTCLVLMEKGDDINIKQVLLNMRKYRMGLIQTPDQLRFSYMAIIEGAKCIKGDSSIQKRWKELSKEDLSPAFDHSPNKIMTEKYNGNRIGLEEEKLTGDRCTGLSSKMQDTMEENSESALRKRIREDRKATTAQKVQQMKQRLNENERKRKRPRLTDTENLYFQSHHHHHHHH
Briefly: Mobility shift assay (MSA) for potency of PTPN2 inhibitors. In kind it is biochemical. The method, boiled down: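 His-tagged PTPN2 TC45 (0.5 nM) was preincubated with compound (12-point, 1:3) for 10 min at room temperature in 50 mM HEPES pH 7.5, 1 mM EGTA, 10 mM EDTA, 0.01% Tween 20, 2 mM DTT. OG488-labelled phospho-insulin-receptor peptide ([…]) was then added for 10 min. After quenching, dephosphorylation was measured by microfluidic mobility shift and IC50 derived from % inhibition.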

Assay [2] has as its system B16F10 mouse melanoma cells. Briefly: B16F10 IFNγ-induced cellular growth inhibition assay. Conditions: Mus musculus, B16-F10. It counts as cell-based. How it is done:
B16F10 mouse melanoma cells (ATCC Cat ^#CRL-6475, Manassas, Va.) were seeded at a density of 500 cells per well in a 384-well clear bottom plate (Corning Cat^# 3765, Corning, N.Y.) in 25 μL total volume of DMEM+10% FBS (Sigma Cat ^#D6429 and Sigma Cat ^#F4135, St. Louis, Mo.). Cells were allowed to adhere overnight at 37° C.+5% CO2. On the following day, 12.5 μL of mouse IFNγ (RD systems Cat485-MI/CF, Minneapolis, Minn.) was added to half of the plate (columns 13-24) at a concentration of 2 ng/mL for a final assay concentration of 0.5 ng/mL of IFNγ. Media only (12.5 μL of DMEM+10% FBS) was added to the remainder of the plate (columns 1-12). Next, compounds resuspended in DMSO (Sigma Cat ^#D2650) at 100 mM were diluted in semi-log dilutions in DMSO ranging from 100 mM to 0.001 mM and DMSO only controls were included. The compound/DMSO dilutions were further diluted 1:250 in DMEM+10% FBS, and 12.5 μL of these dilutions were added in triplicates to cells of both treatment arms (with and without IFNγ). Final compound concentrations ranged from 100 μM to 0.001 μM with a final DMSO concentration of 0.1%. Compounds were only dosed in the inner 240 wells, avoiding the outer 2-well perimeter of the plate to minimize edge effects. Finally, the plate was loaded into an IncuCyte® S3 Live Cell Analysis System (Essen Bioscience-Sartorius, Ann Arbor, Mich.) maintained in a 37° C.+5% CO2 incubator, allowed to equilibrate for 2 hours, and imaged every 6 hours for 5 days. Confluence over time for compound dilutions in the presence and absence of IFNγ was measured. Growth inhibition values were obtained when the “DMSO/no IFNγ” control reached confluence >95%. At these time points, the percent growth inhibition of each compound at the indicated concentration was calculated relative to the “DMSO/with IFNγ” control.

Where [3] appears, read: +0.5 ng/mL IFNγ, 33 μM compound, relative to DMSO control, read-out: % B16F10 growth inhibition (+0.5 ng/mL IFNγ) @ 33 μM.
Setting [4] is: no IFNγ, 33 μM compound, read-out: % B16F10 growth inhibition (no IFNγ) @ 33 μM.

Read-outs that look alike come from different tables or passages of the source.

Take `CCC(=O)CCOc1ccc2cc(O)c(N3CC(=O)NS3(=O)=O)c(F)c2c1` [Compound 155, 5-{1-fluoro-3-hydroxy-7-[(3-oxopentyl)oxy]naphthalen-2-yl}-1λ^6,2,5-thiadiazolidine-1,1,3-trione]: the IC50 in assay [1] (read-out: PTPN2 MSA IC50) is less than 1 nM. The inhibition at 33 µM in assay [2] (setting [3]) and in assay [2] (setting [4]) was 60 to 90% each time.

With `O=C1CN(c2c(O)cc3ccc(NCCNS(=O)(=O)C4CC4)cc3c2F)S(=O)(=O)N1` [Compound 125, N-(2-{[8-fluoro-6-hydroxy-7-(1,1,4-trioxo-1λ^6,2,5-thiadiazolidin-2-yl)naphthalen-2-yl]amino}ethyl)cyclopropanesulfonamide], in assay [1] (read-out: PTPN2 MSA IC50), the IC50 was 1 to 10 nM. The values for the inhibition at 33 µM in assay [2] (setting [3]) and in assay [2] (setting [4]) were 60 to 90% and less than 25%, respectively.

Turning to `CC1(CCOc2ccc3cc(O)c(N4CC(=O)NS4(=O)=O)c(F)c3c2)CC1` [Compound 193, 5-{1-fluoro-3-hydroxy-7-[2-(1-methylcyclopropyl)ethoxy]naphthalen-2-yl}-1λ^6,2,5-thiadiazolidine-1,1,3-trione], the IC50 in assay [1] (read-out: PTPN2 MSA IC50) is less than 1 nM. The inhibition at 33 µM in assay [2] (setting [3]) was 25 to 59%; in assay [2] (setting [4]) it was less than 25%.

`O=C1CN(c2c(O)cc3ccc(OCCN4CCOCC4)cc3c2F)S(=O)(=O)N1` [Compound 100, 5-{1-fluoro-3-hydroxy-7-[2-(morpholin-4-yl)ethoxy]naphthalen-2-yl}-1λ^6,2,5-thiadiazolidine-1,1,3-trione]: the IC50 in assay [1] (read-out: PTPN2 MSA IC50) lay within 1 to 10 nM. Further, the inhibition at 33 µM in assay [2] (setting [3]) was greater than 90%; in assay [2] (setting [4]), less than 25%.

Consider `CP(C)(=O)N1CC=C(c2ccc3cc(O)c(N4CC(=O)NS4(=O)=O)c(F)c3c2)C1` [Compound 168, 5-{7-[1-(dimethylphosphoryl)-2,5-dihydro-1H-pyrrol-3-yl]-1-fluoro-3-hydroxynaphthalen-2-yl}-1λ^6,2,5-thiadiazolidine-1,1,3-trione], for which the IC50 in assay [1] (read-out: PTPN2 MSA IC50) was less than 1 nM. Besides, the figures for the inhibition at 33 µM in assay [2] (setting [3]) and in assay [2] (setting [4]) were greater than 90% and less than 25%, respectively.

As to `[2H]C1([2H])C(=O)NS(=O)(=O)N1c1c(O)cc2ccc(OC)cc2c1F` [Compound 123, 5-(1-fluoro-3-hydroxy-7-methoxynaphthalen-2-yl)(4,4-^2H2)-1λ^6,2,5-thiadiazolidine-1,1,3-trione], the IC50 in assay [1] (read-out: PTPN2 MSA IC50) was 1 to 10 nM. Besides, the figures for the inhibition at 33 µM in assay [2] (setting [3]) and in assay [2] (setting [4]) were 60 to 90% and less than 25%, respectively.

As for `COc1ccc2c(Cl)c(O)c(N3CC(=O)NS3(=O)=O)c(F)c2c1` [Compound 238, 5-(4-chloro-1-fluoro-3-hydroxy-7-methoxynaphthalen-2-yl)-1λ^6,2,5-thiadiazolidine-1,1,3-trione], the IC50 in assay [1] (read-out: PTPN2 MSA IC50) was 10 to 100 nM. The inhibition at 33 µM in assay [2] (setting [3]) and in assay [2] (setting [4]) was less than 25% in each case.

On to `CS(=O)(=O)N1CC[C@@H](Nc2ccc3cc(O)c(N4CC(=O)NS4(=O)=O)c(F)c3c2)C1` [Compound 304, 5-(1-fluoro-3-hydroxy-7-{[(3R)-1-(methanesulfonyl)pyrrolidin-3-yl]amino}naphthalen-2-yl)-1λ^6,2,5-thiadiazolidine-1,1,3-trione], for which, in assay [1] (read-out: PTPN2 MSA IC50), the IC50 was in the range of 1 to 10 nM. For the same compound, the inhibition at 33 µM in assay [2] (setting [3]) was greater than 90%; in assay [2] (setting [4]) it was less than 25%.

`O=C1CN(c2c(O)cc3ccc(OCCCC(F)(F)F)cc3c2F)S(=O)(=O)N1` [Compound 158, 5-[1-fluoro-3-hydroxy-7-(4,4,4-trifluorobutoxy)naphthalen-2-yl]-1λ^6,2,5-thiadiazolidine-1,1,3-trione]: the IC50 in assay [1] (read-out: PTPN2 MSA IC50) fell in the range of 1 to 10 nM. The inhibition at 33 µM in assay [2] (setting [3]) is 60 to 90%; in assay [2] (setting [4]) it was less than 25%.

On to `O=C1CN(c2c(O)cc3ccc(OCC4CC4)cc3c2F)S(=O)(=O)N1` [Compound 250, 5-[7-(cyclopropylmethoxy)-1-fluoro-3-hydroxynaphthalen-2-yl]-1λ^6,2,5-thiadiazolidine-1,1,3-trione], for which, in assay [1] (read-out: PTPN2 MSA IC50), the IC50 fell in the range of 1 to 10 nM. Moreover, the values for the inhibition at 33 µM in assay [2] (setting [3]) and in assay [2] (setting [4]) were 60 to 90% and less than 25%, respectively.

For the compound `[2H]C([2H])([2H])Oc1ccc2cc(O)c(N3CC(=O)NS3(=O)=O)c(F)c2c1` [Compound 118, 5-{1-fluoro-3-hydroxy-7-[(^2H3)methyloxy]naphthalen-2-yl}-1λ^6,2,5-thiadiazolidine-1,1,3-trione], the IC50 in assay [1] (read-out: PTPN2 MSA IC50) lay within 1 to 10 nM. Also, the inhibition at 33 µM in assay [2] (setting [3]) is 60 to 90%; in assay [2] (setting [4]) it was less than 25%.

Turning to `CC(C)CNc1ccc2cc(O)c(N3CC(=O)NS3(=O)=O)c(F)c2c1` [Compound 201, 5-{1-fluoro-3-hydroxy-7-[(2-methylpropyl)amino]naphthalen-2-yl}-1λ^6,2,5-thiadiazolidine-1,1,3-trione], the IC50 in assay [1] (read-out: PTPN2 MSA IC50) was 1 to 10 nM. Besides, the inhibition at 33 µM was 60 to 90% in assay [2] (setting [3]) and less than 25% in assay [2] (setting [4]).

As for `COc1ccc2cc(O)c(N3CC(=O)NS3(=O)=O)cc2c1` [Compound X, reference compound], the IC50 was 10 to 100 nM in assay [1] (Table 4, read-out: PTPN2 MSA IC50) and 69 nM in assay [1] (read-out: PTPN2 IC50). The inhibition at 33 µM in assay [2] (33 μM, in the presence of IFNγ, read-out: growth inhibition in the presence of IFNγ compared to DMSO controls) is less than 25%; in assay [2] (Table 4, +0.5 ng/mL IFNγ, 33 μM, read-out: % B16F10 growth inhibition (+0.5 ng/mL IFNγ) @ 33 μM), less than 25%; in assay [2] (Table 4, no IFNγ, 33 μM, read-out: % B16F10 growth inhibition (no IFNγ) @ 33 μM), less than 25%.

On to `CC(C)(C)OCCOc1ccc2cc(O)c(N3CC(=O)NS3(=O)=O)c(F)c2c1` [Compound 217, 5-[7-(2-tert-butoxyethoxy)-1-fluoro-3-hydroxynaphthalen-2-yl]-1λ^6,2,5-thiadiazolidine-1,1,3-trione], for which the IC50 in assay [1] (read-out: PTPN2 MSA IC50) fell in the range of 1 to 10 nM. The results for the inhibition at 33 µM in assay [2] (setting [3]) and in assay [2] (setting [4]) were 25 to 59% and less than 25%, respectively.

Consider `CCCOc1ccc2cc(O)c(N3CC(=O)NS3(=O)=O)c(F)c2c1` [Compound 278, 5-(1-fluoro-3-hydroxy-7-propoxynaphthalen-2-yl)-1λ^6,2,5-thiadiazolidine-1,1,3-trione], for which, in assay [1] (read-out: PTPN2 MSA IC50), the IC50 lay within 1 to 10 nM. In addition, the inhibition at 33 µM in assay [2] (setting [3]) was 60 to 90%; in assay [2] (setting [4]), less than 25%.

In the case of `O=C1CN(c2c(O)cc3ccc(/C=C/C4CC4)cc3c2F)S(=O)(=O)N1` [Compound 239, 5-{7-[(E)-2-cyclopropylethenyl]-1-fluoro-3-hydroxynaphthalen-2-yl}-1λ^6,2,5-thiadiazolidine-1,1,3-trione], in assay [1] (read-out: PTPN2 MSA IC50), the IC50 fell in the range of 1 to 10 nM. Besides, the inhibition at 33 µM in assay [2] (setting [3]) was 60 to 90%; in assay [2] (setting [4]), less than 25%.

As for `CC(C)(N)CCOc1ccc2cc(O)c(N3CC(=O)NS3(=O)=O)c(F)c2c1` [Compound 165, 5-[7-(3-amino-3-methylbutoxy)-1-fluoro-3-hydroxynaphthalen-2-yl]-1λ^6,2,5-thiadiazolidine-1,1,3-trione], the IC50 in assay [1] (read-out: PTPN2 MSA IC50) was 1 to 10 nM. Besides, the inhibition at 33 µM in assay [2] (setting [3]) is greater than 90%; in assay [2] (setting [4]), less than 25%.

`Nc1ccccc1CS(=O)(=O)N1CC=C(c2ccc3cc(O)c(N4CC(=O)NS4(=O)=O)c(F)c3c2)C1` [Compound 195, 5-(7-{1-[(2-aminophenyl)methanesulfonyl]-2,5-dihydro-1H-pyrrol-3-yl}-1-fluoro-3-hydroxynaphthalen-2-yl)-1λ^6,2,5-thiadiazolidine-1,1,3-trione]: in assay [1] (read-out: PTPN2 MSA IC50), the IC50 is less than 1 nM. Besides, the results for the inhibition at 33 µM in assay [2] (setting [3]) and in assay [2] (setting [4]) were 60 to 90% and less than 25%, respectively.
